Source: ChEMBL document CHEMBL6120959
The source made the active and inactive calls. No cut-off for these calls is given here.

Legend:
[1] = target: Lysine-specific histone demethylase 1A (Homo sapiens) (UniProt O60341); assay: Inhibition of LSD1 (unknown origin) demethylase-mediated FAD-dependent H2O2 production at 1 uM by fluorescence coupling enzyme assay
[2] = target: Lysine-specific histone demethylase 1A (Homo sapiens) (UniProt O60341); type: tissue-based; conditions: Colorectal cancer organoid, dose 0.313-5 µM, time 10.0 day
[3] = target: Lysine-specific histone demethylase 1A (Homo sapiens) (UniProt O60341); type: cell-based; conditions: HCT-116, dose 0.063-1 µM, time 48.0 hrs
[4] = target: T1, Histone deacetylase (Homo sapiens) (UniProt Q13547+O15379+Q9UBN7+Q92769+Q9UQL6+Q8WUI4+Q9BY41+Q96DB2+P56524+Q9UKV0+Q969S8); assay: Inhibition of HDAC in patient-derived human Colorectal cancer organoid assessed as increase in acetyl-histone H3 level at 0.313 to 5 uM treated for 10 days by Western blot analysis; type: tissue-based; conditions: dose 0.313-5 µM, time 10.0 day
[5] = target: T1, Histone deacetylase (Homo sapiens); assay: Inhibition of HDAC in patient-derived human Colorectal cancer organoid assessed as increase in acetyl-tubulin level at 0.313 to 5 uM treated for 10 days by Western blot analysis; type: tissue-based; conditions: dose 0.313-5 µM, time 10.0 day
[6] = target: T1, Histone deacetylase (Homo sapiens); type: cell-based; conditions: HCT-116, dose 0.063-1 µM, time 48.0 hrs
[7] = target: Lysine-specific histone demethylase 1A (Homo sapiens) (UniProt O60341); type: tissue-based; conditions: Colorectal cancer organoid, dose > 2.5 µM, time 10.0 day
[8] = target: T1, Histone deacetylase (Homo sapiens); type: cell-based; conditions: HCT-116, dose 0.063-1 µM, time 48.0 hrs; remark: listed apart in the source
[9] = target: Lysine-specific histone demethylase 1A (Homo sapiens) (UniProt O60341); assay: Inhibition of LSD1 in patient-derived human Colorectal cancer organoid at >2.5 uM treated for 10 days by IHC analysis; type: tissue-based; conditions: time 10.0 day

| inhibition [2] | inhibition [4] | inhibition [5] | inhibition [6] | inhibition [7] | inhibition [8] | inhibition [9] | SMILES | inhibition [1] | inhibition [3] |
| --- | --- | --- | --- | --- | --- | --- | --- | --- | --- |
| Active | Active | Active | Dose-dependent-effect | Active | Dose-dependent-effect | Active | O=C(/C=C/c1cccc(S(=O)(=O)N[C@@H]2C[C@H]2c2ccccc2)c1)NO | Active; More Effective Than Standard Lsd1 Inhibitor At All Concentrations Tested | Active |
| – | – | – | – | – | – | – | O=C(CCCCCCC(=O)Nc1ccccc1)NO | – | Active; Compound Might Have Indirect Lsd1 Inhibitory Effect |
